Patent US20250179066A1, “ZWITTERIONIC ANTIBACTERIAL COMPOUNDS” (Hoffmann-La Roche Inc., priority 2022, published 2025)
Counter-ions that a name gives are not always drawn. Like-named read-outs stand apart in the source and are kept apart here.

System: Acinetobacter baumannii ATCC17961
Assay: Antimicrobial susceptibility testing: 90% growth inhibitory concentration (IC90) determination
Type: cell-based
Settings: 90% growth inhibitory concentration against Acinetobacter baumannii ATCC17961, Iso-Sensitest broth, OD 600 nm over 16 h, read-out: ATCC 17961 IC90
Protocol: The in vitro antimicrobial activity of the compounds was determined according to the following procedure: The assay used a 10-points Iso-Sensitest broth medium to measure quantitatively the in vitro activity of the compounds against Acinetobacter baumannii ATCC17961. Stock compounds in DMSO were serially twofold diluted (e.g. range from 10 to 0.0195 μM final concentration) in 384 wells microtiter plates and inoculated with 49 μL the bacterial suspension in Iso-Sensitest medium to have a final cell concentration of ˜5×10^(5) CFU/mL in a final volume/well of 50 μL/well. Microtiter plates were incubated at 35±2° C. Bacterial cell growth was determined with the measurement of optical density at λ=600 nm each min over a time course of 16 h. Growth inhibition was calculated during the logarithmic growth of the bacterial cells with determination of the concentration inhibiting 50% (IC50) and 90% (IC90) of the growth. Table 1 provides the 90% growth inhibitory concentrations (IC90) in micromoles per liter of the compounds of present invention obtained against the strain Acinetobacter baumannii ATCC17961.

[1] = Acinetobacter baumannii, ATCC17961, 16 h

| Compound | IC90 [1] | IC90 |
| --- | --- | --- |
| Cn1c(-c2cn(-c3ccc(N)cc3F)nc2C(F)(F)F)cnc1C(=O)Nc1ccc(C(=O)N2CCN(C(=O)C3CC[N+](CCCO)(CC(=O)O)CC3)CC2)c(Cl)c1 (stereo not shown) [Example 159, 2-[4-[4-[4-[[5-[1-(4-amino-2-fluoro-phenyl)-3-(trifluoromethyl)pyrazol-4-yl]-1-methyl-imidazole-2-carbonyl]amino]-2-chloro-benzoyl]piperazine-1-carbonyl]-1-(3-hydroxypropyl)piperidin-1-ium-1-yl]acetic acid. 1:1 2,2,2-trifluoroacetate] | 647 nM |  |
| Cn1c(-c2cn(-c3ccc(NCCOC(F)F)cc3F)nc2C(F)(F)F)cnc1C(=O)Nc1ccc(C(=O)N2CCN(C(=O)[C@H]3CC[N@+](CC(=O)O)(CC4CNC4)CC3)CC2)c(Cl)c1 [Example 126, cis-2-[1-(azetidin-3-ylmethyl)-4-[4-[2-chloro-4-[[5-[1-[4-[2-(difluoromethoxy)ethylamino]-2-fluoro-phenyl]-3-(trifluoromethyl)pyrazol-4-yl]-1-methyl-imidazole-2-carbonyl]amino]benzoyl]piperazine-1-carbonyl]piperidin-1-ium-1-yl]acetic acid;formate] | 176 nM |  |
| Cn1c(-c2cn(-c3cc4ccccc4s3)nc2C(F)(F)F)cnc1C(=O)Nc1ccc(C(=O)N2CCN(C(=O)C3CC[N+](CC(=O)O)(CC4CNC4)CC3)CC2)c(Cl)c1 (stereo not shown) [Example 95, 2-[1-(Azetidin-3-ylmethyl)-4-[4-[4-[[5-[1-(benzothiophen-2-yl)-3-(trifluoromethyl)pyrazol-4-yl]-1-methyl-imidazole-2-carbonyl]amino]-2-chloro-benzoyl]piperazine-1-carbonyl]piperidin-1-ium-1-yl]Acetic Acid; Formic Acid; Formate] |  | 1760 nM |
| CN(C)c1ccc(-n2cc(-c3cnc(C(=O)Nc4ccc(C(=O)N5CCN(C(=O)[C@H]6CC[N@+](CC(=O)O)(CC7CNC7)CC6)CC5)c(F)c4)n3C)c(C(F)(F)F)n2)c(F)c1 [Example 109, cis-2-[1-(azetidin-3-ylmethyl)-4-[4-[4-[[5-[1-[4-(dimethylamino)-2-fluoro-phenyl]-3-(trifluoromethyl)pyrazol-4-yl]-1-methyl-imidazole-2-carbonyl]amino]-2-fluoro-benzoyl]piperazine-1-carbonyl]piperidin-1-ium-1-yl]acetic acid; 2,2,2-trifluoroacetate] | 213 nM |  |
| Cn1c(-c2cn(-c3ccc(N)cc3F)nc2C(F)(F)F)cnc1C(=O)Nc1ccc(C(=O)N2CCN(C(=O)CCC[N+](C)(CC(=O)[O-])CC3CNC3)CC2)c(Cl)c1 (stereo not shown) [Example 195, 2-[[4-[4-[4-[[5-[1-(4-amino-2-fluoro-phenyl)-3-(trifluoromethyl)pyrazol-4-yl]-1-methyl-imidazole-2-carbonyl]amino]-2-chloro-benzoyl]piperazin-1-yl]-4-oxo-butyl]-(azetidin-3-ylmethyl)-methyl-ammonio]acetate] | 330 nM |  |
| Cn1c(-c2cn(-c3ccc(NC4CC4)cn3)nc2C(F)(F)F)cnc1C(=O)Nc1ccc(C(=O)N2CCN(C(=O)C3CC[N+](CC(=O)O)(CC4CNC4)CC3)CC2)c(Cl)c1 (stereo not shown) [Example 44, 2-[1-(azetidin-3-ylmethyl)-4-[4-[2-chloro-4-[[5-[1-[5-(cyclopropylamino)-2-pyridyl]-3-(trifluoromethyl)pyrazol-4-yl]-1-methyl-imidazole-2-carbonyl]amino]benzoyl]piperazine-1-carbonyl]piperidin-1-ium-1-yl]acetic acid. 1:1 formate] | 490 nM |  |
| Cn1c(-c2cn(-c3ccc(O)cc3F)nc2C(F)(F)F)cnc1C(=O)Nc1ccc(C(=O)N2CCN(C(=O)[C@H]3CC[N@+](CC(=O)O)(CC4CNC4)CC3)CC2)c(Cl)c1 [Example 163, cis-2-[1-(azetidin-3-ylmethyl)-4-[4-[2-chloro-4-[[5-[1-(2-fluoro-4-hydroxy-phenyl)-3-(trifluoromethyl)pyrazol-4-yl]-1-methyl-imidazole-3-carbonyl]amino]benzoyl]piperazine-1-carbonyl]piperidin-1-ium-1-yl]acetic acid. 1:1 2,2,2-trifluoroacetate] | 190 nM |  |
| COCCNc1ccc(-n2cc(-c3cnc(C(=O)Nc4ccc(C(=O)N5CCN(C(=O)[C@H]6CC[N@+](CC(=O)O)(CC7CNC7)CC6)CC5)c(F)c4)n3C)c(C(F)(F)F)n2)c(F)c1 [Example 124, cis-2-[1-(azetidin-3-ylmethyl)-4-[4-[2-fluoro-4-[[5-[1-[2-fluoro-4-(2-methoxyethylamino)phenyl]-3-(trifluoromethyl)pyrazol-4-yl]-1-methyl-imidazole-2-carbonyl]amino]benzoyl]piperazine-1-carbonyl]piperidin-1-ium-1-yl]acetic acid; formate] | 103 nM |  |
| Cn1c(-c2cn(-c3ccc(N)cc3F)nc2C(F)(F)F)cnc1C(=O)Nc1ccc(C(=O)N2CCN(C(=O)CCC[N+](CCCN)(CCCN)CC(=O)O)CC2)c(Cl)c1 [Example 183, [4-[4-[4-[[5-[1-(4-amino-2-fluoro-phenyl)-3-(trifluoromethyl)pyrazol-4-yl]-1-methyl-imidazole-2-carbonyl]amino]-2-chloro-benzoyl]piperazin-1-yl]-4-oxo-butyl]-bis(3-aminopropyl)-(carboxymethyl)ammonium;formate] | 108 nM |  |
| CN(C)CC[N@+]1(CC(=O)O)CC[C@H](C(=O)N2CCN(C(=O)c3ccc(NC(=O)c4ncc(-c5cn(-c6ccc(N)cc6F)nc5C(F)(F)F)n4C)cc3Cl)CC2)CC1 [Example 187, trans-2-[4-[4-[4-[[5-[1-(4-amino-2-fluoro-phenyl)-3-(trifluoromethyl)pyrazol-4-yl]-1-methyl-imidazole-2-carbonyl]amino]-2-chloro-benzoyl]piperazine-1-carbonyl]-1-[2-(dimethylamino)ethyl]piperidin-1-ium-1-yl]acetic acid;2,2,2-trifluoroacetate] | 745 nM |  |

Continued, in another order:

| IC90 [1] | Compound | IC90 |
| --- | --- | --- |
| 440 nM | Cn1c(-c2cn(-c3ccc4[nH]ncc4n3)nc2C(F)(F)F)cnc1C(=O)Nc1ccc(C(=O)N2CCN(C(=O)[C@H]3CC[N@+](CC(=O)O)(CC4CNC4)CC3)CC2)c(Cl)c1 [Example 42, cis-2-[1-(azetidin-3-ylmethyl)-4-[4-[2-chloro-4-[[1-methyl-5-[1-(1H-pyrazolo[4,3-b]pyridin-5-yl)-3-(trifluoromethyl)pyrazol-4-yl]imidazole-2-carbonyl]amino]benzoyl]piperazine-1-carbonyl]piperidin-1-ium-1-yl]acetic acid. 1:1 2,2,2-trifluoroacetate] |  |
| 135 nM | Cn1c(-c2cn(-c3cc4[nH]c(CO)cc4cn3)nc2C(F)(F)F)cnc1C(=O)Nc1ccc(C(=O)N2CCN(C(=O)[C@H]3CC[N@+](CC(=O)O)(CC4CNC4)CC3)CC2)c(Cl)c1 [Example 180, cis-2-[1-(azetidin-3-ylmethyl)-4-[4-[2-chloro-4-[[1-methyl-5-[1-(2-methylol-1H-pyrrolo[3,2-c]pyridin-6-yl)-3-(trifluoromethyl)pyrazol-4-yl]imidazole-2-carbonyl]amino]benzoyl]piperazine-1-carbonyl]piperidin-1-ium-1-yl]acetic acid. 1:1 2,2,2-trifluoroacetate] |  |
| 69.5 nM | Cn1c(-c2cn(-c3cc4[nH]c(CCN)cc4cn3)nc2C(F)(F)F)cnc1C(=O)Nc1ccc(C(=O)N2CCN(C(=O)[C@H]3CC[N@+](CC(=O)O)(CC4CNC4)CC3)CC2)c(Cl)c1 [Example 142, cis-2-[4-[4-[4-[[5-[1-[2-(2-aminoethyl)-1H-pyrrolo[3,2-c]pyridin-6-yl]-3-(trifluoromethyl)pyrazol-4-yl]-1-methyl-imidazole-2-carbonyl]amino]-2-chloro-benzoyl]piperazine-1-carbonyl]-1-(azetidin-3-ylmethyl)piperidin-1-ium-1-yl]acetic acid;formate] |  |
| 715 nM | Cn1c(-c2cn(-c3ccc4[nH]c(CC(N)=O)cc4n3)nc2C(F)(F)F)cnc1C(=O)Nc1ccc(C(=O)N2CCN(C(=O)[C@H]3CC[N@+](CC(=O)O)(CC4CNC4)CC3)CC2)c(Cl)c1 [Example 167, cis-2-[4-[4-[4-[[5-[1-[2-(2-amino-2-oxo-ethyl)-1H-pyrrolo[3,2-b]pyridin-5-yl]-3-(trifluoromethyl)pyrazol-4-yl]-1-methyl-imidazole-2-carbonyl]amino]-2-chloro-benzoyl]piperazine-1-carbonyl]-1-(azetidin-3-ylmethyl)piperidin-1-ium-1-yl]acetic acid;2,2,2-trifluoroacetate] |  |
| 53.2 nM | Cn1c(-c2cn(-c3cc4[nH]c(CN)cc4cn3)nc2C(F)(F)F)cnc1C(=O)Nc1ccc(C(=O)N2CCN(C(=O)[C@H]3CC[N@+](CC(=O)O)(CC4CNC4)CC3)CC2)c(Cl)c1 [Example 189, cis-2-[4-[4-[4-[[5-[1-[2-(aminomethyl)-1H-pyrrolo[3,2-c]pyridin-6-yl]-3-(trifluoromethyl)pyrazol-4-yl]-1-methyl-imidazole-2-carbonyl]amino]-2-chloro-benzoyl]piperazine-1-carbonyl]-1-(azetidin-3-ylmethyl)piperidin-1-ium-1-yl]acetic acid;formic acid;formate] |  |
| 682 nM | CNC(=O)n1ccc2nc(-n3cc(-c4cnc(C(=O)Nc5ccc(C(=O)N6CCN(C(=O)[C@H]7CC[N@+](CC(=O)O)(CC8CNC8)CC7)CC6)c(Cl)c5)n4C)c(C(F)(F)F)n3)ccc21 [Example 143, cis-2-[1-(azetidin-3-ylmethyl)-4-[4-[2-chloro-4-[[1-methyl-5-[1-[1-(methylcarbamoyl)pyrrolo[3,2-b]pyridin-5-yl]-3-(trifluoromethyl)pyrazol-4-yl]imidazole-2-carbonyl]amino]benzoyl]piperazine-1-carbonyl]piperidin-1-ium-1-yl]acetic acid. 1:1 formate] |  |
